Structures can show the parent of a compound that is named as a salt.
Key:
[1] = system: B16 melanoma cells; format: cell-based; conditions: B16 cells in culture
From the text: Furthermore, the autophagy induction of humanin may be related to its apparent effects of enhancing longevity observed in other systems.

[2] = system: germ cells in seminiferous tubules; experiment: Germ cell apoptosis in mouse seminiferous tubule cultures ex vivo (TUNEL); format: cell-based; conditions: 12 hours; for germ cell apoptosis (number of apoptotic germ cells) compared to control: DOX 10 μM (high dose), hydrochloride
Protocol: A total of 15 young adult (12-13 week-old) mice were used for these ex vivo studies. The animals were sacrificed with a 5% pentobarbital (200 mg/Kg) IP injection. Testes were dissected and after removing the tunica albuginea, seminiferous tubules isolated from testes were cut into small segments under a dissecting microscope and light and dark segments were separated by dissection. Ten to twelve segments were placed (2 mm in length) in each well on a six well plate with 2 ml serum free Ham F-10 culture medium (GIBCO, Life Technologies, Thermo Fisher Scientific Corp., Carlsbad, Calif.) with the following treatments: control (Con, n=10), heat (43° C., 15 minutes, used as a positive control, n=10); HN 10 μg/mL (n=9); DOX 10 mcM (Dox10, n=10); and DOX 10 mcM+Humanin 10 μg/mL (Dox10+HN, n=10). For these experiments, n represents the total number of times the treatment was repeated using different animals. After 12 hours of incubation at 34° C. the seminiferous tubules from each treatment group were used to make “squashed” seminiferous tubule samples on a slide for TUNEL (TdT-mediated dUTP nick-end labeling) assay to detect germ cell apoptosis (Erkkila, et al., 1997; Toppari & Parvinen, 1985). To quantify the rate of germ cell apoptosis under a light microscope at 400× magnification, a square grid fitted within the eyepiece provided a reference area of 62,500 μm^2. The TUNEL positive apoptotic germ cells within the frame of grid were counted in 4 segments of seminiferous tubules in each group. The incidence of germ cell apoptosis was expressed as the number of apoptotic germ cells per mm^2.
A total of 15 mice were used for ex vivo studies. The animals were sacrificed and seminiferous tubules isolated from testes were cut into small segments under a dissecting microscope to identify light (early stages I-IV and late stages XI-XII) of the seminiferous epithelium) and dark (middle stages VII-VIII) segments. Ten to twelve light segments (2 mm in length) were placed per well on a six well plate with 2 ml serum free medium of F-10 Ham nutrient mixture (Gibco, Life Technologies, Grand Island, N.Y.) following these treatments: control (Con, n=15 where n is the number of times the treatment was repeated with segments obtained from different donor animals), heat (43° C., 15 min.; used as a positive control, n=10), HN 10 μg/mL (HN, n=9), doxorubicin 1 μM (Dox1, n=7), doxorubicin 1 μM+HN 10 μg/mL (Dox1+HN, n=7), doxorubicin 10 μM (Dox10, n=10), and doxorubicin 10 μM+HN 10 μg/mL (Dox10+HN, n=10). After 12 hours of incubation at 34° C. with 5% CO2, the seminiferous tubules from the seven treatment groups were used to make “squashed” seminiferous tubule preparations on a slide for TUNEL assay to detect germ cell apoptosis (Erkkila K, et al., 1997). To quantify the rate of germ cell apoptosis, the squashed segments of seminiferous tubules were examined with an American Optical Microscope (Scientific Instruments, Buffalo, N.Y.) with a 40×objective and a 10×eyepiece lens. A square grid fitted within the eyepiece provided a reference area of 62,500 μm^2. The TUNEL positive apoptotic germ cells within the frame of grid were counted in 4 segments of seminiferous tubules in each group. The incidence of germ cell apoptosis was expressed as the number of apoptotic germ cells per mm^2.

[3] = system: male germ cells; conditions: EDS 80 mg/kg IP 3 days before; CP 70 mg/kg BW
[4] = system: Leydig cells; experiment: Leydig cell depletion and testosterone levels in rats; format: in vivo, rat
[5] = system: male germ cells; format: in vivo, mouse; conditions: for effect of adding the analog on the preventive effect of HN against CP-induced germ cell apoptosis: each peptide 40 mg/kg BW; for spontaneous germ cell apoptosis, peptide alone: single IP, 24 hours, no CP; for effect on CP-induced germ cell apoptosis, early+late stages / inhibition of (protection against) CP-induced germ cell apoptosis, early+late stages: stages I-IV and XI-XII; for effect on CP-induced germ cell apoptosis, early+late stages / effect on CP-induced germ cell apoptosis, middle stages: 40 mg/kg BW; for inhibition of (protection against) CP-induced germ cell apoptosis, early+late stages: HN, HN-C8P 40 mg/kg BW
Protocol: (§1) For the HN analog experiments, male mice were divided into seven groups (n=4-5 per group) and received one of the following treatments and sacrificed after 24 hours: 1) vehicle (control); 2) a single intra-peritoneal (IP) injection of HN peptide [HN, 40 mg/Kg body weight (BW)]; 3) a single IP injection of CP (CP, 200 mg/Kg BW); 4) IP injection of CP and HN (CP+HN); 5) a single IP injection of each HN analog (HNG 5 mg/Kg BW, HNG-F6A 5 mg/Kg BW, HN-S7A 40 mg/Kg BW, HN-C8P 40 mg/Kg BW, or HN-L12A 40 mg/Kg BW); 6) IP injection of CP and each HN analog (CP+HNG, HNG-F6A, HN-S7A, HN-C8P, or HN-L12A); and 7) IP injection of CP+HN+HN analog (HN-S7A, HN-C8P, or HN-L12A; to assess whether the analogs has enhancing or inhibitory effect on HN).
(§2) To facilitate testicular fixation by using a whole-body perfusion technique, all animals were injected with heparin (130 IU/100 g BW, IP) 15 min before a lethal injection of sodium pentobarbital (200 mg/kg BW, IP) (Lue Y H, et al., 1999). One testis was removed and weighed after perfusion with saline. Portions of testicular parenchyma were snap frozen in liquid nitrogen, and stored at −80 C for Western blotting. The other testis was fixed by vascular perfusion with Bouin's solution, and processed with routine paraffin embedding for in situ detection of apoptosis.
Detection of apoptotic cells was performed in Bouin's′-fixed, paraffin-embedded testicular sections by the terminal deoxynucleotidyl transferase (TdT)-mediated deoxy-UTP nick end labeling (TUNEL) technique (Sinha Hikim A P, et al., 1997) using an ApopTag-peroxidase kit (Chemicon International, Inc., Temecula, Calif.). Enumeration of the Sertoli cell nuclei with distinct nucleoli and apoptotic germ cell population was quantified at stages I-IV (early stages), stages VII-VIII (middle stages) and stages XI-XII (late stages) of the seminiferous epithelial cycle using an Olympus BH-2 microscope (New Hyde Park, N.Y.). Stages were identified according to the criteria proposed by Russell et al for paraffin sections (Russell L, 1977). The rate of germ cell apoptosis (apoptotic index, AI) was expressed as the number of apoptotic germ cells per Sertoli cells (Sinha Hikim A P, et al., 1997).

[6] = system: cells; conditions: Table 1, description of analogs; cited from earlier work
[7] = system: IGFBP-3, membrane receptor, BAX, HN; conditions: Table 1, description of analogs; cited from earlier work
[8] = system: STAT3; experiment: STAT3 phosphorylation in testis by western blot; format: in vivo, mouse; conditions: testis homogenates; for STAT3 phosphorylation (phosphorylated STAT3/STAT3) compared with control: treatment alone; for CP suppressed STAT3 (Ser727) phosphorylation: with CP 200 mg/Kg
Protocol: as §1, §2
Western blotting was performed as described previously (Jia Y, et al., 2009). In brief, proteins were denatured and separated by sodium dodecyl sulfate-polyacrylamide gel electrophoresis (SDS-PAGE) system (Invitrogen, Carlsbad, Calif.). After transferring, the Immuno-blot PVDF Membrane (Bio-Rad, Hercules, Calif.) was blocked for 1 h and then probed using anti-STAT3 or anti-pSer727 STAT3 (Cell signaling Technology, Inc., Beverly, Mass.) overnight at 4 C with constant shaking. After washing, membrane was then incubated with an anti-mouse (for STAT3 antibody, Santa Cruz Biotechnology, Santa Cruz, Calif.) or anti-rabbit (for pSer727 STAT3 antibody, Amersham Biosciences, Piscataway, N.J.) IgG-HRP secondary antibody. All antibodies were diluted in blocking buffer. For immunodetection, membrane was incubated with enhanced chemiluminescence solutions per the manufacturer's specifications (Amersham Biosciences, Piscataway, N.J.), and exposed to Hyperfilm ECL (Denville Scientific Inc., Metuchen, N.J.).

[9] = rats, EDS 80 mg/kg, CP 70 mg/kg BW, HN 40 mg/kg BW, with or without EDS pre-treatment

Row | Molecule | effect of adding the analog on the preventive effect of HN against CP-induced germ cell apoptosis [5] | spontaneous germ cell apoptosis, peptide alone [5] | effect on CP-induced germ cell apoptosis, early+late stages [5] | effect on CP-induced germ cell apoptosis, middle stages ([5]; stages VII-VIII) | Cytoprotective Action [6] | Characteristics [7] | also measured
1 | Cn1cnc(N)c2ncnc1-2 [3-MA] | – | – | – | – | – | – | additive effect of humanin in doxorubicin treated B16 cells, with autophagy inhibitor [1]: diminished the additive effect of humanin
2 | COc1cccc2c1C(=O)c1c(O)c3c(c(O)c1C2=O)C[C@@](O)(C(=O)CO)C[C@@H]3O[C@H]1C[C@H](N)[C@H](O)[C@H](C)O1 [DOX, doxorubicin hydrochloride, reference compound] | – | – | – | – | – | – | germ cell apoptosis (number of apoptotic germ cells) compared to control [2]: significantly higher number of apoptotic germ cells; germ cell apoptosis (number of apoptotic germ cells) compared to control ([2]; listed as doxorubicin): significantly increased apoptosis; germ cell apoptosis compared with control ([2]; doxorubicin 1 μM (low dose)): increased apoptosis but did not reach statistical difference
3 | CS(=O)(=O)OCCOS(C)(=O)=O [EDS, ethane dimethanesulfonate] | – | – | – | – | – | – | germ cell apoptosis at early (I-VI) and late (IX-XIV) stages, EDS pre-treated rats, compared to control [3]: did not significantly increase germ cell apoptosis; germ cell apoptosis in middle (VII-VIII) stages, EDS pre-treated rats [3]: had significant acute cytotoxic effects on germ cells; Leydig cells in the interstitial spaces (testis histology) ([4]; EDS for three days): depletion of Leydig cells; intratesticular testosterone levels [4, 9]: decreased to very low levels; serum testosterone levels [4, 9]: decreased to very low levels
4 | CCN(CC)CCCC(C)Nc1ccnc2cc(Cl)ccc12 (stereo not drawn) [chloroquine] | – | – | – | – | – | – | additive effect of humanin in doxorubicin treated B16 cells, with autophagy inhibitor [1]: diminished the additive effect of humanin
5 | HN-L12A: HN with a substitution of alanine for 12th leucine, HN antagonist dimerizes with HN preventing HN binding to receptor (MAPRGFSCLLLATSEIDLPVKRRA) | completely blocked the preventive effect of HN | did not change the spontaneous germ cell apoptosis | unable to rescue | unable to rescue | HN antagonist, forms inactive dimer | – | –
6 | MAPRGASCLLLLTGEIDLPVKRRA [HNG-F6A] | – | did not change spontaneous germ cell apoptosis | – | – | – | – | inhibition of (protection against) CP-induced germ cell apoptosis, early+late stages ([5]; HNG, HNG-F6A 5 mg/kg BW): ~38%; prevention of CP-induced germ cell apoptosis, middle stages ([5]; stages VII-VIII, HNG, HNG-F6A 5 mg/kg BW): ~42%
7 | MAPRGASCLLLLTSEIDLPVKRRA [HN-F6A] | – | – | – | – | Similar/more effective than HN. | Loss of IGFBP-3 binding | –
8 | MAPRGFACLLLLTSEIDLPVKRRA [HN-S7A] | did not change the effect of HN on CP-induced apoptosis | did not change the spontaneous germ cell apoptosis | inhibited | had better protective effect than HN | Not effective, prevents HN self- | Loss of membrane receptor | STAT3 phosphorylation (phosphorylated STAT3/STAT3) compared with control [8]: did not change STAT3 phosphorylation; CP suppressed STAT3 (Ser727) phosphorylation [8]: restored CP-induced Ser 727-phosphorylation of STAT3
9 | MAPRGFSALLLLTSEIDLPVKRRA [HN-C8A, HN mutant, Cys8 to Ala] | – | – | – | – | Not effective, prevents HN self- | Loss of membrane receptor | –
10 | MAPRGFSPLLLLTSEIDLPVKRRA [HN-C8P] | did not change the preventive effect of HN | did not change the spontaneous germ cell apoptosis | showed less protection against CP-induced apoptosis | no significant effect in middle (VII-VIII) stages | Not effective, blocks intracellular HN | Loss of BAX binding | inhibition of (protection against) CP-induced germ cell apoptosis, early+late stages ([5]; HNG, HNG-F6A 5 mg/kg BW): ~30%; STAT3 phosphorylation (phosphorylated STAT3/STAT3) compared with control [8]: did not change STAT3 phosphorylation; CP suppressed STAT3 (Ser727) phosphorylation [8]: restored CP-induced Ser 727-phosphorylation of STAT3
